Tests used:
[1] = biological target: T1, Adenosine receptor A1 (Homo sapiens, UniProt P30542); format: cell membranes, Membrane; details: cho;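 also: radioligand binding assay at the adenosine A1 receptor, with DPCPX serving as the labelled ligand; in other assays of this panel Not Active means under 50% inhibition at 10 µM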
T1 sequence (P30542 whole entry): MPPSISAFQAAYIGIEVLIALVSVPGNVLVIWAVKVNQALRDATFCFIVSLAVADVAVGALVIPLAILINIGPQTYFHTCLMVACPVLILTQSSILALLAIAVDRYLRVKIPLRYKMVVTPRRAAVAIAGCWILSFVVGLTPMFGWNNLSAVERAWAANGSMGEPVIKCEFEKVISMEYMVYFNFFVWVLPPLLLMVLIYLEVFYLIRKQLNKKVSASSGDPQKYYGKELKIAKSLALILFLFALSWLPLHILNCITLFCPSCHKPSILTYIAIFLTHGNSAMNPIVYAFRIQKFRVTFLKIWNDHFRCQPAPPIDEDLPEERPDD

[2] = biological target: T2, Amine oxidase [flavin-containing] A (Homo sapiens, UniProt P21397); test: DRUGMATRIX: Monoamine Oxidase MAO-A enzyme inhibition (substrate: Kynuramine); set-up: species or system BTI-TN-5B1-4; details: bti-tn-5b1-4; Not Active = under 50% inhibition at 10 µM
T2 sequence (P21397 whole entry): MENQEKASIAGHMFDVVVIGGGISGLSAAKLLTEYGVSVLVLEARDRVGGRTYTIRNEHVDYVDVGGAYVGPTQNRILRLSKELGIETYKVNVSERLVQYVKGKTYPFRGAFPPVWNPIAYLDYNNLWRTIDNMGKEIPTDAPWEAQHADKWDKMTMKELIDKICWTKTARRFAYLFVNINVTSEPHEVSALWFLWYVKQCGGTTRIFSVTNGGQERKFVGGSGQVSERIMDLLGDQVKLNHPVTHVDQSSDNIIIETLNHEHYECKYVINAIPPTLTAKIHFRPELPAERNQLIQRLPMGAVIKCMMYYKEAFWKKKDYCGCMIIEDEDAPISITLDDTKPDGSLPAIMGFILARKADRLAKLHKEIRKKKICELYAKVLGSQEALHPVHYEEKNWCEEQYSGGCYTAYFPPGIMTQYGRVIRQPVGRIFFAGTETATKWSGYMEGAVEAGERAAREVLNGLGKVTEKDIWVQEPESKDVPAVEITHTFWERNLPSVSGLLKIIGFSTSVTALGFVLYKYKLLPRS

[3] = DRUGMATRIX: Calcium Channel Type L, Benzothiazepine radioligand binding (ligand: [3H] Diltiazem); format: cell membranes, Rattus norvegicus, Wistar, Brain, Membrane; details: Not Active = under 50% inhibition at 10 µM
[4] = DRUGMATRIX: Potassium Channel [KATP] radioligand binding (ligand: [3H] Glyburide); format: cell membranes, Membrane; details: hit-t15; Not Active = under 50% inhibition at 10 µM
[5] = DRUGMATRIX: Glutamate, AMPA radioligand binding (ligand: [3H] AMPA); format: cell membranes, Rattus norvegicus, Wistar, Cerebral cortex, Membrane; details: Not Active = under 50% inhibition at 10 µM
[6] = biological target: Matrix metalloproteinase-9 (Homo sapiens, UniProt P14780); test: biochemical; format: cell-based;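 also: inhibition of isolated MMP-9 enzyme activity toward a synthetic peptide substrate, from the DrugMatrix protease screening panel; in other assays of this panel Not Active means under 50% inhibition at 10 µM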
[7] = biological target: T3, Alpha-1A adrenergic receptor (Rattus norvegicus, UniProt P43140); test: DRUGMATRIX: Alpha-1A adrenergic receptor radioligand binding (ligand: prazosin); format: cell membranes, Wistar, Submaxillary gland, Membrane; details: Not Active = under 50% inhibition at 10 µM
T3 sequence (P43140 whole entry): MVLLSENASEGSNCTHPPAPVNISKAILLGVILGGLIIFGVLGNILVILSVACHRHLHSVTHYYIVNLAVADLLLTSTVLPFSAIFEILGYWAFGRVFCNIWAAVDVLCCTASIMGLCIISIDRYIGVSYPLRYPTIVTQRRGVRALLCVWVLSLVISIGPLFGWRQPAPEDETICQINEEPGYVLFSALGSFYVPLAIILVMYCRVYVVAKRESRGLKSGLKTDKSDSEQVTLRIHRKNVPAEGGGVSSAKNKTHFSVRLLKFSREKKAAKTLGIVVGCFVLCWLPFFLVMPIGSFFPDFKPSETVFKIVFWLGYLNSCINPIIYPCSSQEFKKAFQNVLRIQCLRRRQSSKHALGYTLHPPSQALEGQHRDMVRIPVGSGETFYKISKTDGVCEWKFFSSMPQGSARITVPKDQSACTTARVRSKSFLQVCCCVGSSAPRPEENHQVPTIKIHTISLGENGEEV

Sequence of Matrix metalloproteinase-9 (P14780 whole entry): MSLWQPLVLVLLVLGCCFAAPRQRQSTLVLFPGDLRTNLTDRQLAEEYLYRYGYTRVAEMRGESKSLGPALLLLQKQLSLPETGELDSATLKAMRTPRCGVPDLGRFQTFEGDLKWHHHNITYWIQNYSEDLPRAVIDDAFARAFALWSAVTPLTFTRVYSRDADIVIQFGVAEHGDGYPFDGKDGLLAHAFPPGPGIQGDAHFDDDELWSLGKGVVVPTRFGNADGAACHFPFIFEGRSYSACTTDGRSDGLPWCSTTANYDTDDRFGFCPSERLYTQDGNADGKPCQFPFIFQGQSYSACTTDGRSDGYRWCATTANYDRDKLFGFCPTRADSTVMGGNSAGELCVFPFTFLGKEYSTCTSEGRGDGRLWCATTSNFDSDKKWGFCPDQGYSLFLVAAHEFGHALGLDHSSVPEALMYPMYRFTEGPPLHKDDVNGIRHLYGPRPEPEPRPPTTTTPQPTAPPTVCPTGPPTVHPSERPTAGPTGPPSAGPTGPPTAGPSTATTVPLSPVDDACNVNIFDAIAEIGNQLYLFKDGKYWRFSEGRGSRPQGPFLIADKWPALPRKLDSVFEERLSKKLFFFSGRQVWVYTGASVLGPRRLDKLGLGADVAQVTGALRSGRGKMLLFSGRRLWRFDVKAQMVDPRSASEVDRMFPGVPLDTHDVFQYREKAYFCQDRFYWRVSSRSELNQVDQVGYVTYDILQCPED

CCCC(CCC)C(=O)O [VALPROIC ACID]
Not Active: IC50 [1] | IC50 [2] | IC50 [3] | Ki [3] | IC50 [4] | Ki [4] | IC50 [5] | Ki [5] | IC50 [6] | IC50 [7]

CCC1=C[C@@H]2CN(C1)Cc1c([nH]c3ccccc13)[C@@](C(=O)OC)(c1cc3c(cc1OC)N(C)[C@H]1[C@@](O)(C(=O)OC)[C@H](OC(C)=O)[C@]4(CC)C=CCN5CC[C@]31[C@@H]54)C2 [VINORELBINE]
Not Active: IC50 [1] | IC50 [2] | IC50 [3] | Ki [3] | IC50 [4] | Ki [4] | IC50 [5] | Ki [5] | IC50 [6] | IC50 [7]

CADMIUM DICHLORIDE
Not Active: IC50 [1] | Ki [1] | IC50 [2] | Ki [2] | IC50 [3] | Ki [3] | IC50 [4] | Ki [4] | IC50 [5] | Ki [5] | IC50 [6] | Ki [6] | IC50 [7] | Ki [7]

Reference: ChEMBL document CHEMBL1909046, “DrugMatrix in vitro pharmacology data”
